Tests used:
[1] = system: HOC/ADR; experiment: Sensitization of MDR cell line to Adriamycin; format: cell-based, human; details: IC50 of Adriamycin / IC50 of Adriamycin with IC10 dose of compound
Description: To determine the sensitization potential of compounds, HOC/ADR and MCF-7/PAX were used. Based on the cytotoxic potential of the compounds against several cancer and non-cancerous cell lines (Table 1), the concentrations of applied compounds were adjusted. IC10 values was considered as the concentrations, which should not decrease the cell viability under 90%. After the addition of compounds, Adriamycin (concentration range 0.1–20 µM) and paclitaxel (concentration range 0.1–10 µM) were added to HOC/ADR and MCF-7/PAX, respectively. The sensitization potential of the compounds was determined as the ratio of the IC50 of cytostatic agent (Adriamycin/paclitaxel) to the IC50 of cytostatic agent affected by the compound in concentration corresponding to the IC10 value. Fold change greater than 1 indicated synergic effect of cytostatic agent and the tested compound.
After that, the plates were washed 1× with PBS and fresh DMEM medium supplemented with tested compounds at final concentration corresponding their IC10 value was added, except for positive control wells. Subsequently, Adriamycin (concentration range 0.1–20 µM) or paclitaxel (concentration range 0.1–10 µM) was added to the appropriate cell line for 72 h. After incubation, the cells were washed 1× with PBS and the resazurin solution (0.03 mg/mL) was added to evaluate the cell viability as described above. IC50 values of cytostatics were calculated for both the control and compounds; a fold change was counted up. When this fold change is higher than 1 indicates a synergism between the tested cytostatic agent and the compound, while a fold change lower than 1 means an antagonism. Fold change=IC50value of cytostatic treated cells only/IC50value of cytostatic treated cells in addition of the compound

[2] = system: HOC/ADR spheroids; experiment: 3D spheroid formation; format: cell-based, human; details: 1 µM
Description: (§1) To monitor the effect of selenoesters on spheroid formation, HOC, HOC/ADR, MCF-7 and MCF-7/PAX cell lines were used. 24 h after HOC cells’ inoculation, the diameter of formed spheroids was measured. The spheroids with diameters above 200 µm are characterized by the presence of a concentration gradient of oxygen, nutrients, and metabolites. The ovarian cancer cells (HOC, HOC/ADR) formed aggregates in which single cells could be recognized (Figs. 3, 4). In contrast, breast cancer cell lines (MCF-7, MCF-7/PAX) (Figs. 5, 6) formed compact spheroids where individual cells could not be distinguished because of close cell–cell interactions. According to this fact, the easier penetration and action of compounds into spheroids of ovarian cancer cells is expected. Upon selenoesters’ addition, the images of spheroids were taken regularly to determine their areas relative to the control spheroids in medium containing the solvent (1% V/V DMSO).
(§2) Human ovarian and breast cancer cells (parental and resistant) were seeded into U bottom 96-well plates (VWR, Radnor, Pennsylvania, United States) coated with 0.8% SeaKem LE Agarose at a cell density 0.5 × 10^5 cells/mL (HOC, HOC/ADR) and 1 × 10^5 cell/mL (MCF-7, MCF-7/PAX) in 100 µL of medium with appropriate cytostatic agent. After 24 h, the plates were enriched with 100 µL of medium with tested compounds K3, K4, K7 at the final concentration of 1 µM, except for control cells (100 µL medium with 1% V/V DMSO). Spheroids were recorded 0; 24; 48 and 72 h after exposure to tested compounds by using the light microscope Axio Vert. A1 (Zeiss, Jena, Germany) with photo documentation equipment, Axiocam ICC 1 and Axio Vision 4.8 software (Zeiss), and the spheroid areas were determined by using ImageJ (National Institute of Health, Bethesda, Maryland, United States). Subsequently, a spheroid growth was calculated according to equation: Spheroid area%=SAS at t/SAC at t×100 where SAS represents the area of spheroids treated with the compound; SAC is the control spheroid area; and the exposure time (t = 0; 24; 48; 72 h).

[3] = system: MCF-7 spheroids; experiment: 3D spheroid formation; format: cell-based, human; details: 1 µM, whole treatment (24–72 h)
Description: as §1, §2

[4] = system: HOC spheroids; experiment: 3D spheroid formation; format: cell-based; details: Homo sapiens, 24 h, read-out: inhibition of HOC spheroid growth
Description: as §1, with “According to this fact, the easier penetration and action of compounds into spheroids of ovarian cancer cells is expected. Upon selenoesters’ addition, the images of spheroids were taken regularly to determine their areas relative to the control spheroids in medium containing the solvent (1% V/V DMSO).” left out
Human ovarian and breast cancer cells (parental and resistant) were seeded into U bottom 96-well plates (VWR, Radnor, Pennsylvania, United States) coated with 0.8% SeaKem LE Agarose at a cell density 0.5 × 10^5 cells/mL (HOC, HOC/ADR) and 1 × 10^5 cell/mL (MCF-7, MCF-7/PAX) in 100 µL of medium with appropriate cytostatic agent. […] Spheroids were recorded 0; 24; 48 and 72 h after exposure to tested compounds by using the light microscope Axio Vert. A1 (Zeiss, Jena, Germany) with photo documentation equipment, Axiocam ICC 1 and Axio Vision 4.8 software (Zeiss), and the spheroid areas were determined by using ImageJ (National Institute of Health, Bethesda, Maryland, United States). […]

[5] = system: MCF-7/PAX spheroids; experiment: 3D spheroid formation; format: cell-based, human; details: 1 µM, first 24 h
Description: as §1, §2

| Structure (SMILES) | Fold change [1] | decrease of HOC/ADR spheroid growth ([2]; first 24 h) | MCF-7 spheroid growth relative to control [3] | inhibition at 1 µM [4] | effect on MCF-7/PAX spheroid growth (in words) [5] | HOC/ADR spheroid area compared to the control [2] |
| --- | --- | --- | --- | --- | --- | --- |
| CC(=O)C[Se]C(=O)c1ccc(Br)cc1 [K3] | (1.4 ± 0.1)× | 45% | under 80% |  |  |  |
| CC(=O)C[Se]C(=O)c1ccccc1C(F)(F)F [K4] | (1.4 ± 0.1)× |  |  |  |  |  |
| CC(=O)C[Se]C(=O)c1ccc(C(C)(C)C)cc1 [K7] |  |  |  | > 40% | slowed down | 75% |
